Assay type in all cases: in vivo
Assay [1] in a line: Masking of the bitterness of a mixture of bitter amino acids, panel of experts (n=13), randomized duo-test with nose clip. To be noted: 100 ppm sample; for Reduction of bitterness in % compared to the mixture of amino acids: negative = less bitter, positive = more bitter; for Bitter taste amino acid mixture + sample: scale 0 [not bitter] to 10 [extremely bitter], n=13. The procedure: The masking effect of hydroxybenzoic acid amides (compounds 1-4) to be preferably used according to the invention as well as a comparative substance (compound 5) on a mixture of bitter amino acids (2 g/l L-Isoleucine; 3.5 g/l L-Leucine; 1 g/l L-Phenylalanine; 0.7 g/l L-Tryptophan in water) was evaluated by an panel of experts (n=13) (Evaluation 0 [not bitter] up to 10 [extremely bitter]). The tasting was performed with a nose clip, to exclude olfactory influences, and in a randomized duo-test. The bitterness of the mixture of amino acids was evaluated by the panel by 4.98±0,31 on a scale from 0 to 10.

Assay [2] is described as follows: Masking of the bitter taste of peptides, panel of experts (n=15), randomized duo-tests: Arg-Pro. To be noted: for Bitter taste peptide solution + 100 ppm compound: Arg-Pro 0.1% (w/v) in water, scale 0 (not bitter) to 10 (extremely bitter); for Reduction of bitterness (%): Arg-Pro 0.1% (w/v), 100 ppm compound, negative = less bitter. The procedure: (§1) The masking effect of 2,4-Dihydroxy-N-[(4-hydroxy-3-methoxy-phenyl)methyl]benzamide (compound 1) and N-[(4-hydroxy-3-methoxy-phenyl)methyl]-2,4-dimethoxy-benzamide (compound 5) on the bitter taste of peptides was examined in a panel of experts (n=15) in randomized duo-tests. Therefore, solutions of bitter peptides in water with or without the addition of the exemplary substances were tasted and the perceived bitter taste was evaluated on a scale from 0 (not bitter) to 10 (extremely bitter).

Assay [3] can be described thus: Masking of the bitter taste of peptides, panel of experts (n=15), randomized duo-tests: Trp-Trp-Trp. To be noted: for Bitter taste peptide solution + 100 ppm compound: Trp-Trp-Trp 0.01% (w/v) in water, scale 0 to 10; for Reduction of bitterness (%): Trp-Trp-Trp 0.01% (w/v), 100 ppm compound, negative = less bitter. The procedure:
as §1

Assay [4] is described as follows: Masking of the bitter taste of peptides, panel of experts (n=15), randomized duo-tests: Tyr-Pro-Phe-Pro. To be noted: for Bitter taste peptide solution + 100 ppm compound: Tyr-Pro-Phe-Pro 0.1% (w/v) in water, scale 0 to 10; for Reduction of bitterness (%): Tyr-Pro-Phe-Pro 0.1% (w/v), 100 ppm compound, negative = less bitter. The method, then:
as §1

Assay [5] is described as follows: Masking of the bitter taste of peptides, panel of experts (n=15), randomized duo-tests: Leu-Trp (comparative example). To be noted: for Reduction of bitterness (%): Leu-Trp 0.2% (w/v) (comparative peptide), 100 ppm compound, negative = less bitter; for Bitter taste peptide solution + 100 ppm compound: Leu-Trp 0.2% (w/v) in water (comparative peptide), scale 0 to 10. The method, then: as §1

A short description of assay [6]: Masking of the bitter taste of peptides, panel of experts (n=15), randomized duo-tests: Glu-Leu-Leu (comparative example). To be noted: for Reduction of bitterness (%): Glu-Leu-Leu 0.2% (w/v) (comparative peptide), 100 ppm compound, negative = less bitter; for Bitter taste peptide solution + 100 ppm compound: Glu-Leu-Leu 0.2% (w/v) in water (comparative peptide), scale 0 to 10. The method, then: as §1

Assay [7] in a line: Masking of the bitter taste of peptides. To be noted: 100 ppm; compound 1: plurality of peptides, except Leu-Trp and Glu-Leu-Leu. The procedure: as §1
Assay [8] can be described thus: Masking of the bitter taste of whey protein hydrolysate solution, panel of experts (n=8), randomized duo-tests. To be noted: base 3% (w/v) whey protein hydrolysate in water; 100 ppm compound 1; aroma 1.6% (w/v) in the combination. The procedure: The bitter masking effect of 2,4-dihydroxy-N-[(4-hydroxy-3-methoxy-phenyl)methyl]benzamide (compound 1) on the bitter taste of whey protein hydrolysate was tested in a panel of experts [n=8] for a solution of 3% (w/v) of a commercially available whey protein hydrolysate (BioZate 3 of the company Davisco) in randomized duo-tests. The perceived bitter taste was evaluated on a scale from 0 [not bitter] to 10 [extremely bitter]. For comparison, a combination of compound 1 with a usual bitter masking aroma was tested, to examine possible additive effects.

Regarding `COc1cc(CNC(=O)c2ccc(O)cc2)ccc1O` [compound 3, 4-Hydroxy-N-[(4-hydroxy-3-methoxy-phenyl)methyl]benzamide], in assay [1], the “Reduction of bitterness in % compared to the mixture of amino acids” value (from here on “Reduction of bitterness in %”) is −14.1% and the “Bitter taste amino acid mixture + sample” value was found to be 4.11.

In the case of `COc1cc(Cn2c(=O)oc3cc(O)cc(O)c3c2=O)ccc1O` [compound 2, 5,7-Dihydroxy-3-[(4-hydroxy-3-methoxy-phenyl)methyl]-1,3-benzoxazin-2,4-dione], in assay [1], the “Reduction of bitterness in %” value is −30.3% and the “Bitter taste amino acid mixture + sample” value came to 3.20.

In the case of `COc1ccc(C(=O)NCc2ccc(O)c(OC)c2)c(OC)c1` [compound 5, N-[(4-hydroxy-3-methoxy-phenyl)methyl]-2,4-dimethoxy-benzamide, reference compound], in assay [1], the “Reduction of bitterness in %” value is listed as 22.8%. In addition, in assay [1], the “Bitter taste amino acid mixture + sample” value came to 6.86. Also, the “Bitter taste peptide solution + 100 ppm compound” value in assay [2] is given as 2.05; in assay [3], 6.40; in assay [4] it was 4.68; in assay [5], 7.1; in assay [6], 5.6. The “Reduction of bitterness (%)” value in assay [2] is on record as 10.81%; in assay [3], −1.08%; in assay [4], 4.46%; in assay [5] it was 4.41%; in assay [6] it was 5.66%. The “Effect on the bitterness of the peptides (in words)” value in assay [7] is listed as “not able to achieve a reduction of the bitterness”.

`COc1cc(CNC(=O)c2ccccc2O)ccc1O` [compound 4, 2-Hydroxy-N-[(4-hydroxy-3-methoxy-phenyl)methyl]benzamide]: in assay [1], the “Reduction of bitterness in %” value is on record as −7.7% and the “Bitter taste amino acid mixture + sample” value is 4.74.

With `COc1cc(CNC(=O)c2ccc(O)cc2O)ccc1O` [compound 1, 2,4-Dihydroxy-N-[(4-hydroxy-3-methoxy-phenyl)methyl]benzamide], the “Reduction of bitterness in %” value in assay [1] is reported as −25.9%. Also, the “Bitter taste amino acid mixture + sample” value in assay [1] stood at 3.90. For the same compound, the “Bitter taste peptide solution + 100 ppm compound” value was determined as 1.47 in assay [2]; 5.35 in assay [3]; 3.43 in assay [4]; 6.5 in assay [5]; 5.1 in assay [6]. Besides, the “Reduction of bitterness (%)” value was −20.9% in assay [2]; −17.4% in assay [3]; −23.3% in assay [4]; −4% in assay [5]; −3.77% in assay [6]. Moreover, the “Reduction of the bitter taste [%]” value in assay [8] is reported as −24.5%. Besides, the “Effect on the bitterness of the peptides (in words)” value in assay [7] was “clear reduction of the bitterness”.

The values are drawn from patent US10736829B2, “Use of certain hydroxybenzoic acid amides for masking unpleasant taste impressions” (SYMRISE AG, priority 2015, dated 2020).
